According to patent US6946453B2, “4-dedimethylaminotracycline derivatives” (CollaGenex Pharmaceuticals, Inc., priority 1998, dated 2005):
Like-named read-outs stand apart in the source and are kept apart here.

Tested on: BALB/c 3T3 (CCL-163) cells
Protocol: The assay used to assess phototoxicity is the so-called 3T3 Phototoxicity Assay. The assay compares the cytotoxicity of a series of doses of a test compound in the presence and absence of UVA/visible light.
Briefly, serial dilutions of a test compound are prepared, and are incubated with 3T3 cells in two 96-well plates. Following an initial incubation, the cells in one plate, the test cells receiving both the chemical and light, are exposed to UVA/visible light. In the second plate, the test cells receiving only the test chemical were treated the same way, except they are kept in the dark for the same amount of time.
Twenty-four hours after exposure, the test cells and the control cells are then incubated with neutral red dye. Neutral red dye is used to measure the relative number of living cells in each well. Live cells are stained with the dye while dead cells are not.
Phototoxicity is measured by the relative toxicity between the doses with and without light exposure following published guidelines.
Streptomycin sulfate ([…]) and penicillin (100 IU/ml) were added to the medium after the cells were treated with test article in 96-well plates.
Serial dilutions of the tetracycline derivatives were prepared in DMSO at concentrations 100× to final testing concentration. The COL dilutions in DMSO were then diluted in Hanks' Balanced Salt Solution (HBSS) for application to the cells. The final DMSO concentration was 1% in treated and control cultures. A dose range finding assay is conducted with eight serial dilutions covering a range of 100-0.03 μg/ml in half log steps. Definitive assays are conducted with 6-8 serial dilutions prepared in quarter log steps, centered on the expected 50% toxicity point as determined in the dose range finding assay. One hundred 100 μg/ml was the highest dose recommended to prevent false negative results from UV absorption by the dosing solutions. One dose range finding and at least two definitive trials were performed on each tetracycline derivative and control compound.
Controls: Each assay included both negative (solvent) and positive controls. Twelve wells of negative control cultures were used on each 96-well plate. Chlorpromazine (Sigma Chemicals) was used as the positive control and was prepared and dosed like the test tetracycline derivatives.
Solar Simulator: A Dermalight SOL 3 solar simulator, equipped with a UVA H1 filter (320-400 nm), was adjusted to the appropriate height. Measurement of energy through the lid of a 96-well microtiter plate was carried out using a calibrated UV radiometer UVA sensor. Simulator height was adjusted to deliver 1.7±0.1 mW/cm^2 of UVA energy (resulting dose was 1 J/cm^2 per 10 minutes of exposure).
Phototoxicity Assay: Duplicate plates were prepared for each test material by seeding 10^4 3T3 cells per well in complete medium 24 hours before treatment. Prior to treatment, the medium was removed, and the cells washed once with 125 μl of prewarmed HBSS. Fifty μl of prewarmed HBSS were added to each well. Fifty μl of each test article dilution were added to the appropriate wells and the plates returned to the incubator for approximately one hour. Six wells were treated with each dose of test or control article on each plate. Following the 1 hr incubation, the plates designated for the photo irradiation were exposed (with the lid on) to 1.7±0.1 mW/cm^2 UVA light for 50±2 minutes at room temperature resulting in an irradiation dose of 5 J/cm^2. Duplicate plates, designated for the measurement of cytotoxicity without light, were kept in the dark room temperature for 50±2 minutes. After the 50 minute exposure period (with or without light) the test article dilutions were decanted from the plates and the cells washed once with 125 μl of HBSS. One hundred μl of medium were added to all wells and the cells incubated as above for 24±1 hours.

Row | Molecule | PIF 2 (photoirritancy factor, IC50(-UVA)/IC50(+UVA), OECD draft guideline 432) | also measured
1 | NC(=O)C1=C(O)C[C@@H]2C[C@@H]3Cc4cccc(O)c4C(=O)C3=C(O)[C@]2(O)C1=O [COL 3, 6-demethyl-6-deoxy-4-dedimethylaminotetracycline] | 84.72 | –
2 | CC1c2cccc(O)c2C(=O)C2=C(O)C3(O)C(=O)C(C(N)=O)=C(O)CC3C(O)C21 (stereo not shown) [COL 8, 4-dedimethylaminodoxycycline] | 82.61 | –
3 | CN(C)c1ccc(O)c2c1CC1CC3CC(O)=C(C(N)=O)C(=O)C3(O)C(O)=C1C2=O (stereo not shown) [COL 10, 4-dedimethylaminominocycline] | 2.04 | –
4 | NC(=O)C1=C(O)CC2CC3Cc4c([N+](=O)[O-])ccc(O)c4C(=O)C3=C(O)C2(O)C1=O (stereo not shown) [COL 302, 7-nitro-6-demethyl-6-deoxy-4-dedimethylaminotetracycline] | 23.32 | –
5 | NC(=O)C1=C(O)CC2CC3Cc4ccc([N+](=O)[O-])c(O)c4C(=O)C3=C(O)C2(O)C1=O (stereo not shown) [COL 303, 9-nitro-6-demethyl-6-deoxy-4-dedimethylaminotetracycline] | 13.82 | –
6 | CN(C)c1ccc2c(c1O)C(=O)C1=C(O)C3(O)C(=O)C(C(N)=O)=C(O)CC3CC1C2 (stereo not shown) [COL 306, 9-dimethylamino-6-demethyl-6-deoxy-4-dedimethylaminotetracycline] | 1.56 | –
7 | CN(C)CC(=O)Nc1ccc2c(c1O)C(=O)C1=C(O)C3(O)C(=O)C(C(N)=O)=C(O)CC3CC1C2 (stereo not shown) [COL 309, 9-dimethylaminoacetamido-6-demethyl-6-deoxy-4-dedimethylaminotetracycline] | 12.87 | –
8 | O=C(NCN1CCCC1)C1=C(O)CC2CC3Cc4cccc(O)c4C(=O)C3=C(O)C2(O)C1=O (stereo not shown) [COL 312, 2-CONHCH2-pyrrolidin-1-yl-6-demethyl-6-deoxy-4-dedimethylaminotetracycline] | 75.11 | –
9 | O=C(NCN1CCCCC1)C1=C(O)CC2CC3Cc4cccc(O)c4C(=O)C3=C(O)C2(O)C1=O (stereo not shown) [COL 313, 2-CONHCH2-piperidin-1-yl-6-demethyl-6-deoxy-4-dedimethylaminotetracycline] | 58.22 | –
10 | O=C(NCN1CCOCC1)C1=C(O)CC2CC3Cc4cccc(O)c4C(=O)C3=C(O)C2(O)C1=O (stereo not shown) [COL 314, 2-CONHCH2-morpholin-1-yl-6-demethyl-6-deoxy-4-dedimethylaminotetracycline] | 89.48 | –
11 | O=C(NCN1CCNCC1)C1=C(O)CC2CC3Cc4cccc(O)c4C(=O)C3=C(O)C2(O)C1=O (stereo not shown) [COL 315, 2-CONHCH2-piperazin-1-yl-6-demethyl-6-deoxy-4-dedimethylaminotetracycline] | 35.30 | –
12 | CC1c2cccc(O)c2C(=O)C2=C(O)C3(O)C(=O)C(C(=O)NCN4CCCC4)=C(O)CC3C(O)C21 (stereo not shown) [COL 807, 2-CONHCH2-pyrrolidin-1-yl-4-dedimethylaminodoxycycline] | – | PIF 1 (photoirritancy factor, IC50(-UVA)/IC50(+UVA), earlier software): 40.4
13 | CN(C)c1cc([N+](=O)[O-])c(O)c2c1CC1CC3CC(O)=C(C(N)=O)C(=O)C3(O)C(O)=C1C2=O (stereo not shown) [COL 1002, 9-nitro-4-dedimethylaminominocycline] | 1.35 | –
14 | CN(C)CCCN1c2ccccc2Sc2ccc(Cl)cc21 [Chlorpromazine, reference compound] | – | PIF 2 (photoirritancy factor, IC50(-UVA)/IC50(+UVA), OECD draft guideline 432) (mouse, 110 min): 40.38
15 | C[C@H]1c2cccc(O)c2C(=O)C2=C(O)[C@]3(O)C(=O)C(C(N)=O)=C(O)[C@@H](N(C)C)[C@@H]3[C@@H](O)[C@@H]21 [Doxycycline, doxycycline, reference compound] | – | PIF 2 (photoirritancy factor, IC50(-UVA)/IC50(+UVA), OECD draft guideline 432) (mouse, 110 min): 26.71
16 | COL 2 | – | MPE (mean photo effect) (BALB/c 3T3 cells, cytotoxicity with vs without 5 J/cm^2 UVA, neutral red, OECD draft guideline 432 software): 0.005
